Where no end group is shown, it is not given here. [ ]: non-standard residue; d: D form.
Experiments:
Caco-2 homogenates [1] = assay: Synthetic peptide ELISA-based binding to Caco-2 homogenates (streptavidin-peroxidase detection); design: species or system human; conditions: for peptide binding: biotin-tagged peptides, Example 5; for binder category / binding to epithelium: ELISA, intestinal epithelial tissue, FIGS. 17A-17B Caco-2 homogenates; for Binding Assay results (Caco-2), category / Binding Assay results (Caco-2), Kd: Tables 9 and 10
Protocol: In order to prepare the Caco-2 cell membrane and cytosolic fractions, confluent Caco-2 cell monolayers (grown in 75 cm^2 flasks for up to 1 week at 37° C. and 5% CO2) were washed twice in Dulbecco's PBS (DPBS). The cell monolayers were then treated with 10 mM EDTA-DPBS for 5-10 minutes at 37° C. and the cells were harvested by centrifugation at 1000 rpm for 5 minutes. The cells were then washed 3×in DPBS. The cell pellet was resuspended in 3 volumes of ice-cold HED buffer (20 mM HEPES (pH 7.67), 1 mM EGTA, 0,5 mM dithiothreitol, 1 mM phenylmethylsuphonyl fluoride (PMSF)) and the cells were allowed to swell for 5 minutes on ice. The cells were then homogenized for 30 seconds. The cell homogenates were then centrifuged in hard walled tubes at 40,000 rpm for 45 minutes at 4° C. (ultracentrifuge Ti90 rotor). The supernatant was removed and the pellet resuspended in HEDG buffer (20 mM HEPES (pH 7.67), 1 mM EGTA, 0.5 mM dithiothreithol, 100 mM NaCl, 10% glycerol, 1 mM PMSF). Three volumes of buffer were then added and the pellet was resuspended and centrifuged again at 1000 rpm for 2 minutes. The supernatant was removed and stored on ice. The procedure was repeated adding the second supernatant to the first and then the procedure was repeated 2-3 more times. The protein concentration was determined using the Bio-Rad protein assay. All fractions were stored at −80° C.
(§1) Peptide sequences (SEQ ID NOs: 3, 4, 5, 7, 8, 9, 10, 11, 14, 15, 16, 17, 19, 20, 26, 28, 29, 30) were synthesized with biotin tags at the amino terminal for all peptides and additionally at the carboxyl terminal for SEQ ID NOs:8 and 14. Binding of these peptides to Caco-2 homogenates and/or to rat intestinal tissue homogenates was tested in an ELISA-based assay with streptavidin-peroxidase detection. […] (See FIGS. 13A-13N).

[2] = system: rat intestinal tissue homogenates; assay: Synthetic peptide ELISA-based binding to rat intestinal tissue homogenates; conditions: biotin-tagged peptides; Example 5
Protocol: The rat tissue homogenates were prepared by harvesting rat GI and Peyer's patch and storing them on ice until needed, or 1-2 hours. The tissue was then put into homogenization buffer (250 mM Sucrose, 12 mM Tris, 16 mM EDTA) with protease inhibitor cocktail. A hand-held homogenizer was used to break up the tissue for 3-4 minutes. The contents of the homogenizer were then transferred to microfuge tubes and spun at 1500 rpm for 1 minute. The supernatant was taken off and measured for protein content using the Bio-Rad Assay. Specificity studies were then run to allow differentiation between Peyer's patch specific and non-specific binding properties. The 55 high-binding clones were assayed for binding to rat small intestinal homogenates (i.e., homogenate membrane fractions) with and without Peyer's Patch tissue (i.e., tissue homogenate membrane fractions) present. (See FIGS. 6 and 7). The negative control was M13 mp18 with no peptide insert.
as §1

[3] = system: intestinal tissue of different species namely dog, mouse, pig, and rat; assay: Peptide binding to intestinal tissue of different species; conditions: biotin-tagged peptides
Protocol: (§2) Peptide sequences (SEQ ID NOs:3, 7, 8, 9 and 14) were synthesized with biotin tags at the amino terminal for all peptides and additionally at the carboxyl terminal for SEQ ID NOs:8 and 14. Binding of these peptides to intestinal tissue of different species namely dog, mouse, pig, and rat was performed. […] (See FIGS. 14A-14H). Binding of peptides (SEQ ID NOs:8 and 14) to rat tissue from different organs, namely liver, lung, mesenteric lymph nodes, spleen and kidney, was performed. […] (See FIGS. 15A-15E).

Caco-2 homogenates [4] = assay: Peptide coated particles ELISA-based binding to Caco-2 homogenates; design: species or system human; conditions: for binding of peptide coated particles: peptide adsorbed to streptavidin particles (0.289 μm)
Protocol: Several phage-derived peptides (SEQ ID NOs: 25, 31, 32, 33, and 40) were adsorbed to streptavidin particles (0.289 μm). Peptide coated particles were tested in an ELISA-based assay for binding to Caco-2 homogenates. […] In addition, when one double-mutant peptide ligand (SEQ ID NO:33), is adsorbed to polystyrene particles binding that is approximately 60% of that of the parent peptide is observed (See FIGS. 19A-19B).

[5] = system: rat tissue from different organs, namely liver, lung, mesenteric lymph nodes, spleen and kidney; assay: Peptide binding to rat tissue from different organs
Protocol: as §2

[6] = system: human Peyer's patch tissue sections; assay: Biotinylated peptide binding to human Peyer's patch tissue sections (streptavidin-HRP/DAB staining); conditions: biotinylated peptide at 50 μg/ml; for binding to human Peyer's patch: 1 hour
Protocol: Three synthetic peptides (SEQ ID NO:8, 25 and 14) derived from isolated clones were biotinylated and tested for binding to human Peyer's patch tissue sections. In addition, a known negative binding peptide was included as a negative control. Paraffin sections of human Peyer's patch were deparaffinized and […]. The sections were rinsed in PBS. The antigenic determinants on the tissue were unmasked by microwaving in 2.1 g/L acetic acid for 5 minutes and allowed to cool at room temperature for 20 minutes while covered in plastic wrap. After 20 minutes, the sections were washed in PBS and then blocked in endogenous peroxidase in 1% hydrogen peroxide in methanol for 10 minutes. The rinse was repeated and the sections were blocked with 2% BSA in PBS for 20 minutes at room temperature. The sections were incubated with peptide at 50 μg/ml in […] in PBS for 1 hour at room temperature. Control tissue was treated with BSA alone. The sections were rinsed with 0.05% Tween in PBS. Streptavidin-HRP at 1/500 in 2% BSA was added for 30-60 minutes at room temperature. Again, the sections were rinsed with PBS/Tween. DAB substrate was added for up to 5 minutes, and the reaction was stopped by immersing the slides in water. The sections were counterstained using Haematoxlin for 50 seconds and then rinsed in water. The slides were differentiated in 1% acid alcohol for 5-10 seconds and then rinsed in water. The slides were mounted using aqueous mounting medium and a cover slip.

[7] = system: intestinal epithelial tissue; assay: Cysteine binding studies: co-incubation with free L-cysteine; conditions: L-cysteine 100 mM to 0.003 mM; peptide 6.25-25 μg/ml
Protocol: FIG. 16A is a graph of the binding of SEQ ID NO:8 at a concentration of 25 μg/ml to intestinal epithelial tissue in the presence of varying concentrations of free L-cysteine as a function of absorbance at 650 nm.
Peptide SEQ ID NO:8, at a concentration of 6.25 μg/ml, 12.5 μg/ml and 25 μg/ml, was co-incubated with L-cysteine over the concentration range of 100 mM to 0.003 mM. Peptide SEQ ID NO:25, at a concentration of 6.25 μg/ml was co-incubated with L-cysteine over the concentration range of 100 mM to 0.003 mM.

M-cells = assay: Peptide coated fluorescent polystyrene particles in mouse intestinal loops, confocal microscopy; assay type: in vivo; conditions: fluorescent polystyrene particles (0.289 μm), 30 minutes incubation in loops
Protocol: Biotinylated SEQ ID NO:40 was adsorbed to the surface of fluorescent polystyrene particles (0.289 μm) using routine methodologies at room temperature. Mouse intestinal loops containing one or more polystyrene suspensions (typically 300 μl containing 5.0×10^10 particles per ml) were incubated for 30 minutes. The Peyer's patches were excised, fixed in methanol and the M cells were counter-stained with UEA1-rhodamine for subsequent analysis by confocal microscopy. Stained tissues were examined on a BioRad MRC 600 confocal laser-scanning microscope.

| binder category / binding to epithelium (Caco-2 homogenates [1]) | Binding Assay results (Caco-2), Kd (Caco-2 homogenates [1]) | Substance | Binding Assay results (Caco-2), category (Caco-2 homogenates [1]) | further results |
| --- | --- | --- | --- | --- |
| binding to the epithelium is abrogated | – | LETTAASLAYPS (polypeptide ligand) [SEQ ID NO:33] | No binding | binding relative to that of the parent peptide (Caco-2 homogenates [4]; peptide adsorbed to polystyrene particles): approximately 60%; binding of peptide coated particles (Caco-2 homogenates [4]): Binding was retained |
| binding is still retained | (Kd˜9 μg/ml) | LETTAASLCYPS [SEQ ID NO:31] | Medium binder | binding of peptide coated particles (Caco-2 homogenates [4]): Binding was retained |
| binding is still retained | (Kd˜8 μg/ml) | LETTCASLAYPS [SEQ ID NO:32] | Medium binder | binding of peptide coated particles (Caco-2 homogenates [4]): Binding was retained |
| binding to the epithelium is abrogated | – | VPPHPMTYSAQY (polypeptide ligand) [SEQ ID NO:38] | No binding | – |
| highest binder | – | VPPHPMTYSCQY (polypeptide ligand) [SEQ ID NO:25] | – | peptide binding (Caco-2 homogenates [1]): High binding; peptide binding [2]: High binding; staining localisation [6]: positive staining on the apical side of human enterocytes; binding to human Peyer's patch [6]: Positive binding; effect of free L-cysteine on peptide binding [7]: prevented binding; binding of peptide coated particles (Caco-2 homogenates [4]): Binding was retained |
| – | (Kd˜30.53 μg/ml) | lettcaslcyps ([dL][dE][dT][dT][dC][dA][dS][dL][dC][dY][dP][dS]; cysteine pairing not given here) [SEQ ID NO:36] | – | – |
| – | (Kd˜13.91 μg/ml) | spyclsacttel ([dS][dP][dY][dC][dL][dS][dA][dC][dT][dT][dE][dL]; cysteine pairing not given here) [SEQ ID NO:35] | Medium binder | – |
| retained high binding | (Kd˜10 μg/ml) | vpphpmtyscqy ([dV][dP][dP][dH][dP][dM][dT][dY][dS][dC][dQ][dY]) [SEQ ID NO:37] | – | – |
| retained high binding | (Kd˜10 μg/ml) | yqcsytmphppv ([dY][dQ][dC][dS][dY][dT][dM][dP][dH][dP][dP][dV]) [SEQ ID NO:40] | – | binding of peptide coated particles (Caco-2 homogenates [4]): Binding was retained; binding and uptake of peptide coated particles (M-cells): binding and uptake into M-cells |

Further lines, the substance ahead of its results:

| Substance | binder category / binding to epithelium (Caco-2 homogenates [1]) | Binding Assay results (Caco-2), Kd (Caco-2 homogenates [1]) | Binding Assay results (Caco-2), category (Caco-2 homogenates [1]) | further results |
| --- | --- | --- | --- | --- |
| DYDSLSWRSTLH (polypeptide ligand) [SEQ ID NO:3] | – | – | – | peptide binding (Caco-2 homogenates [1]): High binding; peptide binding [2]: High binding; differences in binding profiles to tissue of different species [3]: No major differences |
| DYDSLSWRSTLHGGHESSH (polypeptide ligand) [SEQ ID NO:43] | – | – | – | effect of added Zinc-binding motif (HESSH) on binding (Caco-2 homogenates [1]; compared with SEQ ID NO:3): Enhanced binding |
| KPAYTHEYRWLA (polypeptide ligand) [SEQ ID NO:7] | – | – | – | differences in binding profiles to tissue of different species [3]: No major differences |
| LETTCASLCYPS (polypeptide ligand) [SEQ ID NO:8] | medium binder | – | Medium binder | effect of biotin tag at amino or carboxyl end on binding affinities (Caco-2 homogenates [1]): No differences; peptide binding (Caco-2 homogenates [1]): High binding; peptide binding [2]: High binding; differences in binding profiles to tissue of different species [3]: No major differences; differences in binding profiles to tissues of different organs [5]: No major differences; staining localisation [6]: positive staining on the apical side of human enterocytes; binding to human Peyer's patch [6]: Positive binding; effect of free L-cysteine on peptide binding [7]: prevented binding |
| LETTCASLCYPS [8 biotinylated derivative] | – | (Kd˜8 μg/ml) | Medium binder | – |
| LETTCASLCYPS [8 dansyl-lysine derivative] | – | (Kd˜1 μg/ml) | High binder | – |
| LETTSASLSYPS (polypeptide ligand) [SEQ ID NO:34] | – | – | No binding | – |
| LGTDWHSVSYTL (polypeptide ligand) [SEQ ID NO:9] | – | – | – | differences in binding profiles to tissue of different species [3]: No major differences |
| NTRIPEPIRFYM (polypeptide ligand) [SEQ ID NO:14] | low to medium binder | – | – | differences in binding profiles to tissue of different species [3]: No major differences; differences in binding profiles to tissues of different organs [5]: No major differences; binding to human Peyer's patch [6]: negative for binding |
| VCSNMYFSCRLS (polypeptide ligand) [SEQ ID NO:24] | medium binder | – | – | peptide binding (Caco-2 homogenates [1]): High binding; peptide binding [2]: High binding |
| VPPHPMTYSCQY [25 Dansyl-lysine derivative] | – | (Kd < 1 μg/ml) | – | – |
| VPPHPMTYSCQY [25 biotinylated derivative] | – | (Kd < 5 μg/ml) | High binder | – |
| VPPHPMTYSSQY (polypeptide ligand) [SEQ ID NO:39] | – | – | No binding | – |

— patent US6916789B2, “Peyer's patch and/or M-cell targeting ligands” (Merrion Research I Limited, priority 2001, dated 2005)
